Measured values: US3988462A (priority 1972, dated 1976)
Like-named read-outs stand apart in the source and are kept apart here.

Test system: influenza virus-A2 /Kumamoto
Type: in vivo, mice
Details: 20 mg/kg

NC12CC3CC(CC(C3)C1)C2 [Amantadine, 1,Adamantylamine, reference compound]
Survival / treated × 100 % (survival day 7): 100%
Survival / treated × 100 % (survival day 10): 60%
Survival / treated × 100 % (survival day 13): 10%
Survival / treated × 100 % (survival day 15): 0%
Survival / treated × 100 % (survival day 20): 0%
